The NIST ThermoML archive (doi:10.1021/je0501843)
Several values for one entry are separate records, joined by “and”; a condition that tells them apart may be missing. Equal entries are not always repeated.

Assay: molar heat capacity at constant volume
Details: Fluid (supercritical or subcritical phases), Vacuum adiabatic calorimetry

FC(F)C(F)(F)F [pentafluoroethane]
Details	molar heat capacity at constant volume
306 K, Mass density=1202.8 kg/m3	102.77 J/K/mol
307 K, Mass density=1202.7 kg/m3	103.99 J/K/mol
308 K, Mass density=1202.5 kg/m3	103.96 J/K/mol
309 K, Mass density=1202.4 kg/m3	102.49 J/K/mol
310 K, Mass density=1202.3 kg/m3	101.48 J/K/mol
311 K, Mass density=1202.1 kg/m3	102.64 J/K/mol
312 K, Mass density=1202 kg/m3	103.21 J/K/mol
313 K, Mass density=1201.9 kg/m3	102.64 J/K/mol
314 K, Mass density=1201.7 kg/m3	103.24 J/K/mol
315 K, Mass density=1201.6 kg/m3	102.92 J/K/mol
316 K, Mass density=1201.5 kg/m3	103.09 J/K/mol
317 K, Mass density=1201.4 kg/m3	102.73 J/K/mol
318 K, Mass density=1201.2 kg/m3	102.19 J/K/mol
319 K, Mass density=1201.1 kg/m3	102.74 J/K/mol
320 K, Mass density=1201 kg/m3	102.92 J/K/mol
321 K, Mass density=1200.8 kg/m3	102.75 J/K/mol and 102.7 J/K/mol
322 K, Mass density=1079.2 kg/m3	106.18 J/K/mol and 102.47 J/K/mol
322 K, Mass density=1200.7 kg/m3	102.47 J/K/mol and 101.89 J/K/mol
323 K, Mass density=1079.1 kg/m3	105.94 J/K/mol and 104.02 J/K/mol
323 K, Mass density=1200.6 kg/m3	102.89 J/K/mol and 102.1 J/K/mol
324 K, Mass density=1079 kg/m3	105.71 J/K/mol and 105.31 J/K/mol
324 K, Mass density=1200.5 kg/m3	102.77 J/K/mol and 102.45 J/K/mol
325 K, Mass density=1078.9 kg/m3	104.71 J/K/mol and 104.09 J/K/mol
325 K, Mass density=1200.3 kg/m3	102.83 J/K/mol and 102.31 J/K/mol
326 K, Mass density=1078.8 kg/m3	103.25 J/K/mol and 103.34 J/K/mol
326 K, Mass density=1200.2 kg/m3	102.63 J/K/mol and 102.1 J/K/mol
327 K, Mass density=1078.7 kg/m3	104.31 J/K/mol
327 K, Mass density=1200.1 kg/m3	102.65 J/K/mol and 102.35 J/K/mol
328 K, Mass density=1078.6 kg/m3	105.03 J/K/mol and 104.85 J/K/mol
328 K, Mass density=1199.9 kg/m3	102.89 J/K/mol
328 K, Mass density=1200 kg/m3	103.64 J/K/mol
329 K, Mass density=1078.5 kg/m3	104.79 J/K/mol and 104.41 J/K/mol
329 K, Mass density=1199.8 kg/m3	102.81 J/K/mol and 102.69 J/K/mol
330 K, Mass density=1078.4 kg/m3	105.01 J/K/mol and 104.07 J/K/mol
330 K, Mass density=1199.7 kg/m3	103.09 J/K/mol
331 K, Mass density=1078.3 kg/m3	104.36 J/K/mol and 104.2 J/K/mol
331 K, Mass density=1199.6 kg/m3	102.64 J/K/mol
332 K, Mass density=976.3 kg/m3	110.56 J/K/mol and 112.17 J/K/mol
332 K, Mass density=1078.2 kg/m3	104.98 J/K/mol and 105.47 J/K/mol
332 K, Mass density=1199.4 kg/m3	103.45 J/K/mol
333 K, Mass density=976.2 kg/m3	107.88 J/K/mol and 109.12 J/K/mol
333 K, Mass density=1078.1 kg/m3	105.77 J/K/mol and 104.87 J/K/mol
333 K, Mass density=1199.3 kg/m3	103.83 J/K/mol
334 K, Mass density=976.2 kg/m3	105.25 J/K/mol and 107.12 J/K/mol
334 K, Mass density=1078 kg/m3	104.98 J/K/mol and 103.53 J/K/mol
334 K, Mass density=1199.2 kg/m3	103.39 J/K/mol
335 K, Mass density=976.1 kg/m3	106.11 J/K/mol and 106.99 J/K/mol
335 K, Mass density=1077.9 kg/m3	104.43 J/K/mol and 103.57 J/K/mol
335 K, Mass density=1199.1 kg/m3	102.85 J/K/mol
336 K, Mass density=976 kg/m3	107.32 J/K/mol and 107.23 J/K/mol
336 K, Mass density=1077.8 kg/m3	104.74 J/K/mol and 104.05 J/K/mol
336 K, Mass density=1198.9 kg/m3	102.26 J/K/mol
337 K, Mass density=975.9 kg/m3	107.6 J/K/mol and 108.43 J/K/mol
337 K, Mass density=1077.7 kg/m3	105.57 J/K/mol and 105.69 J/K/mol
337 K, Mass density=1198.8 kg/m3	103.71 J/K/mol
338 K, Mass density=975.9 kg/m3	107.08 J/K/mol and 107.59 J/K/mol
338 K, Mass density=1077.6 kg/m3	104.15 J/K/mol and 105.09 J/K/mol
338 K, Mass density=1198.7 kg/m3	104.23 J/K/mol
339 K, Mass density=883.4 kg/m3	114.19 J/K/mol
339 K, Mass density=975.8 kg/m3	106.21 J/K/mol and 106.6 J/K/mol
339 K, Mass density=1077.5 kg/m3	103.97 J/K/mol and 103.59 J/K/mol
339 K, Mass density=1198.5 kg/m3	104 J/K/mol
340 K, Mass density=883.3 kg/m3	112.9 J/K/mol
340 K, Mass density=975.7 kg/m3	106.54 J/K/mol and 107.42 J/K/mol
340 K, Mass density=1077.4 kg/m3	104.49 J/K/mol and 105.35 J/K/mol
341 K, Mass density=883.3 kg/m3	112.1 J/K/mol
341 K, Mass density=975.6 kg/m3	107.88 J/K/mol and 107.61 J/K/mol
341 K, Mass density=1077.3 kg/m3	105.62 J/K/mol and 105.16 J/K/mol
342 K, Mass density=883.2 kg/m3	111.03 J/K/mol
342 K, Mass density=975.6 kg/m3	107 J/K/mol
342 K, Mass density=1077.2 kg/m3	104.92 J/K/mol and 104.79 J/K/mol
343 K, Mass density=502.9 kg/m3	134.81 J/K/mol
343 K, Mass density=883.1 kg/m3	110.42 J/K/mol
343 K, Mass density=975.5 kg/m3	106.86 J/K/mol
343 K, Mass density=1077.1 kg/m3	104.17 J/K/mol and 104.84 J/K/mol
344 K, Mass density=502.9 kg/m3	132.16 J/K/mol
344 K, Mass density=585.8 kg/m3	125.97 J/K/mol
344 K, Mass density=883.1 kg/m3	111.3 J/K/mol
344 K, Mass density=975.4 kg/m3	106.41 J/K/mol
344 K, Mass density=1077 kg/m3	104.75 J/K/mol and 104.6 J/K/mol
345 K, Mass density=502.9 kg/m3	126.98 J/K/mol
345 K, Mass density=585.7 kg/m3	123.95 J/K/mol
345 K, Mass density=585.8 kg/m3	131.35 J/K/mol
345 K, Mass density=688.7 kg/m3	126.83 J/K/mol
345 K, Mass density=883 kg/m3	111.02 J/K/mol
345 K, Mass density=975.3 kg/m3	107.26 J/K/mol
345 K, Mass density=1076.9 kg/m3	105.11 J/K/mol and 104.72 J/K/mol
346 K, Mass density=403.2 kg/m3	120.08 J/K/mol
346 K, Mass density=502.9 kg/m3	120.15 J/K/mol
346 K, Mass density=585.7 kg/m3	120.32 J/K/mol
346 K, Mass density=585.8 kg/m3	127.65 J/K/mol
346 K, Mass density=688.7 kg/m3	123.21 J/K/mol
346 K, Mass density=774.1 kg/m3	115.2 J/K/mol
346 K, Mass density=883 kg/m3	110.89 J/K/mol
346 K, Mass density=975.3 kg/m3	107.47 J/K/mol and 107.62 J/K/mol
346 K, Mass density=1076.8 kg/m3	105.53 J/K/mol and 105.08 J/K/mol
347 K, Mass density=403.2 kg/m3	117.75 J/K/mol
347 K, Mass density=503 kg/m3	115.93 J/K/mol
347 K, Mass density=585.7 kg/m3	117.72 J/K/mol
347 K, Mass density=585.8 kg/m3	123.89 J/K/mol
347 K, Mass density=688.7 kg/m3	119.23 J/K/mol
347 K, Mass density=774.1 kg/m3	114.9 J/K/mol
347 K, Mass density=882.9 kg/m3	110.19 J/K/mol
347 K, Mass density=975.2 kg/m3	105.52 J/K/mol and 107.28 J/K/mol
347 K, Mass density=1076.7 kg/m3	105.04 J/K/mol and 104.54 J/K/mol
348 K, Mass density=403.3 kg/m3	116.59 J/K/mol
348 K, Mass density=503 kg/m3	118.49 J/K/mol
348 K, Mass density=585.7 kg/m3	124.85 J/K/mol and 118.08 J/K/mol
348 K, Mass density=688.7 kg/m3	117.7 J/K/mol
348 K, Mass density=774 kg/m3	114.62 J/K/mol
348 K, Mass density=882.8 kg/m3	109.75 J/K/mol
348 K, Mass density=975.1 kg/m3	106.21 J/K/mol and 107.41 J/K/mol
348 K, Mass density=1076.6 kg/m3	104.59 J/K/mol and 104.74 J/K/mol
349 K, Mass density=403.3 kg/m3	115.69 J/K/mol
349 K, Mass density=503 kg/m3	119.76 J/K/mol
349 K, Mass density=585.7 kg/m3	123.44 J/K/mol and 117.14 J/K/mol
349 K, Mass density=688.6 kg/m3	119.03 J/K/mol
349 K, Mass density=774 kg/m3	115.4 J/K/mol
349 K, Mass density=882.8 kg/m3	110.59 J/K/mol
349 K, Mass density=975 kg/m3	107.41 J/K/mol and 108.49 J/K/mol
349 K, Mass density=1076.6 kg/m3	105.38 J/K/mol and 105.95 J/K/mol
350 K, Mass density=403.4 kg/m3	113.67 J/K/mol
350 K, Mass density=503 kg/m3	116.82 J/K/mol
